In patent US6365549B2, “Methods of blocking an ethylene response in plants using cyclopropene derivatives” (North Carolina State University, priority 1999, dated 2002):

Experiments:
Type in all cases: in vivo
banana [1] = assay: Time of protection (insensitivity to ethylene) of bananas, short-chain cyclopropenes; details: saturating amount (at least 10 times minimum) for 24 hours, daily challenge with 333 μl/l ethylene 12-15 hours
Protocol: To obtain the time of protection, bananas were exposed to a saturating amount of the compound for 24 hours (this was done as above and at least 10 times the minimum protection amount was used). After exposure, bananas were removed from the jars and each day individual bananas were exposed to 333 pill of ethylene for 12-15 hours. The day the bananas responded to ethylene was recorded as the protection time.

banana [2] = assay: Minimum concentration protecting bananas from 333 μl/l ethylene (short-chain cyclopropenes injected as gas); details: 24 hours exposure to compound as gas in 3-liter jar, then 333 μl/l ethylene 12-15 hours, observed for ripening
Protocol: To obtain the minimum concentration that protected bananas from 333 μl/l of ethylene, compounds described in U.S. Pat. No. 5,518,988 to Sisler et al. were applied to bananas according to the methods setforth herein. A known amount of an active compound was injected as a gas into a 3-liter jar containing a banana. The jar was sealed and the banana was removed after 24 hours. At the end of exposure, the banana was treated with 333 pill of ethylene in a 3-liter jar for 12-15 hours. It was then observed for ripening. The minimum concentration is the minimum concentration that protected the banana from 333 μl/l of ethylene. Ten microliters/liter of ethylene is usually considered to be a saturating amount.

[3] = system: Patio variety tomato seedlings; assay: Tomato epinasty test, volatile gas treatment; details: ethylene 10 ppm v/v, scale of 0 to 10, 10 complete protection, 0 no protection
Protocol: The test procedure is designed to determine the ability of an compound according to the present invention to block the epinastic growth response induced by ethylene in tomato plants when the compound is administered either as a volatile gas or as a component of a spray solution. Treatment chambers are of an appropriate size for the test plants and are airtight. Each is fitted with a reusable septum to be used for injection of ethylene. Test plants are Patio variety tomato seedlings planted two plants per three inch square plastic pot. Volatile gas treatment entails placing two pots of Patio var. tomatoes into a polystyrene 4.8 L volume treatment chamber along with one-half (upper or lower section) of a 50×9 mm plastic Petri dish containing a Gelman filter pad. The appropriate amount of experimental compound, dissolved in 1.0 ml acetone, is pipetted onto the filter pad and the chamber immediately sealed. Four hours later ethylene gas equal to 10 ppm v/v final concentration is injected into the sealed chamber. Sixteen hours later the chambers are opened in an exhaust hood, allowed to air and the plants scored visually for the degree of protection against ethylene-induced epinasty conferred by the experimental compound when compared to ethylene treated and untreated controls on a scale of 0 to 10. A rating of 10 means complete protection. A rating of 0 means no protection from the effects of ethylene.

Compound | Protection against ethylene-induced epinasty, rating ([3]; Gas 10 ppm) | Protection against ethylene-induced epinasty, rating ([3]; Gas 1000 ppm) | also measured
1-ethylcyclopropene [1-ethylcyclopropene (1-ECP)] |  |  | Time of Insensitivity (banana [1]): 12 days; Minimum Concentration (banana [2]): 4 nl/l
CC[N+](C)(CC)CCCCCCCC1=CC1.[I-] [Compound 13, 1-(7-N,N,N-Diethylmethylammoniumheptyl)-cyclopropene Iodide] | 6 |  | 
O=C(O)CCCCCCC1=CC1 [Compound 7, 7-Cycloprop-1-enyl-heptanoic Acid] | 3 | 8 | 
CC(C)N.O=C(O)CCCCCCC1=CC1 [Compound 8, 7-Cycloprop-1-enyl-heptanoic Acid Isopropylamine Salt] | 0 |  | Protection against ethylene-induced epinasty, rating ([3]; Gas 500 ppm): 8
CCCCCCCCC1=C(CCCCCCCC(=O)OC)C1 [Compound 21, Methyl Sterculate] | 5 | 9 | 
CC(=O)CCCCCCC1=CC1 [Compound 46, 8-Cycloprop-1-enyl-octan-2-one] | 3 | 9 | 
CCCCCCC1=CC1CCCCCC (centres unmarked) [Compound 44] | 0 | 10 | 
CCCCCCOCC1=CC1 [Compound 14, 1-Hexyloxymethyl-cyclopropene] | 10 |  | 
CCCCCCCCCCC1=CC1 [Compound 25] | 9 |  | 
CCCCCCCCC1C=C1 [Compound 2, 3-Octylcyclopropene] | 0 | 10 | 
Hex-5-yne 2-octylcycloprop-2-ene-1-carboxylate [Compound 22] | 0 |  | Protection against ethylene-induced epinasty, rating ([3]; Gas 750 ppm): 9
CC(=O)O.CCN(CC)CCCCCCCC1=CC1 [Compound 12, 1-(7-N,N,-Diethylammoniumheptyl)-cyclopropene Acetate] | 2 | 10 | 
COCCOCCOCC1=CC1 [Compound 30] | 3 | 10 | 
CCCCCC1(CCCCC)C=C1 [Compound 16, 3,3-Dipentyl-cyclopropene] | 0 | 10 | 
CCCCCC1=CC1 [Compound 31] | 10 |  | 
CC(C)(C)CCC1=CC1 [Compound 43] | 10 |  | 
CCC(=O)OCCC1=CC1 [Compound 33] | 0 | 10 | 
CC(CCC1=CC1)CC(C)(C)C (centres unmarked) [Compound 35] | 10 |  | 
CCCCN(CCCC)CC1=CC1 [Compound 41] | 3 | 10 | 
CCCCC1=CC1 [1-butylcyclopropene (1-BCP), 1-butylcyclopropene] |  |  | Time of Insensitivity (banana [1]): 12 days; Minimum Concentration (banana [2]): 3 nl/l
N#CCCCCCCCC1=CC1 [Compound 10, 1-(7-Cyanoheptyl)-cyclopropene] | 2 | 10 | 
CCCCCC(C)CC1=CC1 (centres unmarked) [Compound 32] | 9.5 |  | 
CCN(CC)CCCCCCCC1=CC1 [Compound 11, 1-(7-N,N-Diethylaminoheptyl)-cyclopropene] | 3 | 10 | 
CCCCCCCCCCCC1=CC1 [Compound 27] | 10 |  | 

Compound | Protection against ethylene-induced epinasty, rating ([3]; Gas 10 ppm) | Protection against ethylene-induced epinasty, rating ([3]; Gas 1000 ppm) | also measured
CCC=CCC1=C(CCCCC)C1 [Compound 17, 1-Pent-2-enyl-2-pentyl-cyclopropene] | 0 | 10 | 
CCCCCCCCCCCCCCCC1=CC1 [Compound 38] | 4.5 | 10 | 
CC(C)(O)CCC1=CC1 [Compound 20, 4-(1-Cyclopropenyl)-2-methylbutan-2-ol] | 0 | 8 | 
C=CCCCCCCC1=CC1 [Compound 19, 1-(Oct-7-enyl)-cyclopropene] | 10 |  | 
CCOC(=O)CCCCCCC1=CC1 [Compound 9, 7-Cycloprop-1-enyl-heptanoic Acid Ethyl Ester] | 4 |  | 
CCCCCC1=C(CCCCC)C1 [Compound 45] | 0 | 10 | 
CCN(CC)C(=O)CCCCCCC1=CC1 [Compound 48, 7-Cycloprop-1-enyl-heptanoic Acid Diethylamide] | 0 | 7 | 
1-methylcyclopropene [1-methylcyclopropene (1-MCP)] |  |  | Time of Insensitivity (banana [1]): 12 days; Minimum Concentration (banana [2]): 0.7 nl/l
CCCCCCCC1=CC1 [Compound 26] | 10 |  | 
CCC=CCC1=CC1(CCCCC)CCCCC [Compound 18, 1-Pent-2-enyl-3,3-dipentyl-cyclopropene] | 0 | 10 | 
CCCCCCCCCCCCC1=CC1 [Compound 40] | 4 | 10 | 
CCCCCCCCCCCCCCC1=CC1 [Compound 42] | 2 | 10 | 
FC(F)(F)CCCCC1=CC1 [Compound 37] | 10 |  | 
COCCCCCCCC1=CC1 [Compound 3, 1-(7-Methoxyheptyl)-cyclopropene] | 9.5 |  | 
CCCCC(CC)CCC1=CC1 (centres unmarked) [Compound 28] | 9 |  | 
CC(C)CCCCCC1=CC1 [Compound 34] | 10 |  | 
CON=C(C)CCCCCCC1=CC1 (single isomer, unassigned) [Compound 47, 8-Cycloprop-1-enyl-octan-2-one O-methyl Oxime] | 9.5 |  | 
CCCCCCCCCC1=CC1 [Compound 24] | 9.5 |  | 
CCCCCC#CCCCCC1=CC1 [Compound 4, 1-(Undec-5-ynl)-cyclopropene] | 10 |  | 
CC(=O)OCCCCCCCC1=CC1 [Compound 6, 1-(7-Acetoxyheptyl)-cyclopropene] | 0 | 10 | 
CCCCCCCCCCCCCC1=CC1 [Compound 29] | 3.5 | 10 | 
CCCC1=CC1 [1-propylcyclopropene (1-PCP), 1-propylcyclopropene] |  |  | Time of Insensitivity (banana [1]): 12 days; Minimum Concentration (banana [2]): 6 nl/l
OCCCCCCCC1=CC1 [Compound 5, 1-(7-Hydroxyheptyl)-cyclopropene] | 0 | 10 | 
1-Pentyloxyethyl-cyclopropene [Compound 15] | 10 |  | 
